A short description of series [1]: Solubility study with buffer (pH dependent solubility testing). The following applies: thermodynamic from solid. As for the experimental part:
Solubility Study with Buffer (pH Dependent Solubility Testing)
A phase solubility study was performed for different buffers to analyse the effect of pH on the solubility of Orellanine. Four buffers were tested: • Acetate buffer pH 4.5 at 50 mM-prepared from 1.81 g sodium acetate and 14 ml of acetic acid (2N), adjusted up to 11 with water for injection (WFI). • Phosphate buffer pH 5.8 at 50 mM-prepared from 92 ml of NaH2PO4 and 8 ml of Na2HPO4, adjusted to 200 ml with WFI. • Phosphate buffer pH 6.8 at 50 mM-prepared from 51 ml of NaH2PO4 and 49 ml of Na2HPO4, adjusted to 200 ml with WFI. • Phosphate buffer pH 7.4 at 50 mM-prepared from 19 ml of NaH2PO4 and 81 ml of Na2HPO4, adjusted to 200 ml with WFI.
(§1) The pH of each buffer was adjusted with a pH meter and sodium hydroxide or hydrochloric acid at 0.2M.
Each suspension was centrifuged at 5300 rpm for 15 minutes. The supernatant was filtered with a 0.45 μm nylon filter.

A short description of series [2]: Solubility study with different buffer concentrations at pH 7.4. The following applies: phosphate buffer, pH 7.4, aqueous buffer, thermodynamic from solid; for solubility thermodynamic at 24 h: Concentration of Orellanine, pH adjusted to 7.4 after 3 hours, stirred 24 hours at room temperature. As for the experimental part: Solubility Study with Different Buffer Concentrations at pH 7.4
The impact of buffer concentration was assessed. Three buffers were used: • Phosphate buffer pH 7.4 at 25 mM-prepared from 0.95 ml of NaH2PO4 (0.1M) and 4.05 ml of Na2HPO4 (0.1M), adjusted to 20 ml with WFI. • Phosphate buffer pH 7.4 at 50 mM-prepared from 19 ml of NaH2PO4 (0.1M) and 81 ml of Na2HPO4 (0.1M), adjusted to 200 ml with WFI. • Phosphate buffer pH 7.4 at 100 mM-prepared from 38 ml NaH2PO4 (0.1M) and 162 ml of Na2HPO4 (0.1M), adjusted to 200 ml with WFI.
as §1
(§2) The suspension was then stirred at 400 rpm for 24 hours at room temperature. Each suspension was filtered through a 0.2 μm PVDF syringe filter.

Series [3] in a line: Solubility study with different buffer salts at pH 7.4. To be noted: for solubility thermodynamic at 24 h: pH 7.4, aqueous buffer, thermodynamic from solid. How it is done: Solubility Study with Different Buffer Salts at pH 7.4
Four buffers at pH 7.4 and 50 mM were assessed: • Phosphate buffer pH 7.4 at 50 mM-prepared from 19 ml of NaH2PO4 (0.1M) and 81 ml of Na2HPO4 (0.1M), adjusted to 200 ml with WFI. • Phosphate buffer pH 7.4 at 50 mM-prepared from 28.1 ml of KH2PO4 (0.2M) and 21.9 ml of NaOH (0.2M) adjusted to 200 ml with WFI. • Tris-HCl buffer pH 7.4 at 50 mM-prepared from 54.7 ml of tris(hydroxymethyl)aminomethane (0.1M) and 45.3 ml of hydrochloric acid (0.1M), adjusted to 200 ml with WFI. • Citrate phosphate buffer pH 7.4 at 50 mM-prepared from 2.4 ml of citric acid monohydrate (0.2M) and 47.6 ml of Na2HPO4 (0.2M), adjusted to 200 ml with WFI.
as §1, §2

Series [4] can be described thus: Solubility study with different ionic strengths at pH 7.4. The following applies: phosphate buffer with sodium chloride, pH 7.4, aqueous buffer, thermodynamic from solid, Concentration of Orellanine, stirred 24 hours at room temperature. How it is done:
Solubility Study with Different Ionic Strengths at pH 7.4
The ionic strength of the NaH2PO4—Na2HPO4 buffer was adjusted by adding sodium chloride. The ionic strength of the NaH2PO4—Na2HPO4 buffer at 50 mM was estimated at around 130 mM. The proportion of sodium chloride in added to the buffers was 0.41%, 0.98%, and 2.15%.
as §2

Series [5] can be described thus: Formulation adjustment: solubility in selected buffers plus 0.70% NaCl, pH adjusted twice. The following applies: pH 7.4, aqueous buffer, thermodynamic from solid. As for the experimental part: Two buffers were selected: NaH2PO4—Na2HPO4 pH 7.4 and Citrate-Na2HPO4 PH 7.4 at 50 mM, each with addition of 0.70% sodium chloride. Adding 0.70% sodium chloride provides a solution close to isotonicity.
Formulations were prepared by weighing 40 mg of Orellanine into a 5 ml vial, adding 2 ml of buffer, stirring the suspension for 1 hour, adjusting the pH to 7.4 with sodium hydroxide (0.2M), stirring the suspension at 400 rpm for 24 hours at room temperature, and adjusting the pH to 7.4 with sodium hydroxide (0.2M). Each suspension was filtered through a 0.2 μm PVDF syringe filter.

Series [6] relates to human renal cancer cells. The following applies: cells derived from a primary tumor or from metastatic tumor tissue; disclosed in WO 2010/040750; cited from earlier work.

By thermodynamic solubility is commonly meant solubility found after equilibrating the solid with the medium. Broadly, the solubility is the dissolved amount per volume that the medium holds.

In brackets after ≈: the same amount, converted by molar mass. Where only a bound is given, the exact number is not on record here.

Turning to `[O-][n+]1ccc(O)c(O)c1-c1c(O)c(O)cc[n+]1[O-]` [Orellanine], the solubility (thermodynamic) at 24 h stood at 2.4 µg/mL (≈ 0.00952 mM) in series [1] (acetate buffer, pH 4.5, aqueous buffer); 29.9 µg/mL (≈ 0.119 mM) in series [1] (phosphate buffer, pH 5.8, aqueous buffer); 622 µg/mL (≈ 2.47 mM) in series [1] (phosphate buffer, pH 6.8, aqueous buffer); 1720 µg/mL (≈ 6.8 mM) in series [1] (phosphate buffer, pH 7.4, aqueous buffer); 3680 µg/mL (≈ 14.6 mM) in series [2] (NaH2PO4—Na2HPO4 pH 7.4 25 mM, final pH 7.29, 92 mOsm); 4880 µg/mL (≈ 19.4 mM) in series [2] (NaH2PO4—Na2HPO4 pH 7.4 50 mM, final pH 7.33, 150 mOsm). Also, the solubility (thermodynamic) at 24 h was 4910 µg/mL (≈ 19.5 mM) in series [2] (NaH2PO4—Na2HPO4 pH 7.4 100 mM, final pH 7.30, 242 mOsm); 4590 µg/mL in series [3] (Tris-HCl buffer); 5440 µg/mL in series [3] (citrate phosphate buffer); 4560 µg/mL in series [3] (phosphate buffer); 5310 µg/mL in series [4] (NaH2PO4—Na2HPO4 pH 7.4 at 50 mM plus 0.41% NaCl, final pH 7.26, 205 mOsm); 5900 µg/mL in series [4] (NaH2PO4—Na2HPO4 pH 7.4 at 50 mM plus 0.98% NaCl, final pH 7.19, 328 mOsm). The solubility (thermodynamic) at 24 h was 6430 µg/mL in series [4] (NaH2PO4—Na2HPO4 pH 7.4 at 50 mM plus 2.15% NaCl, final pH 7.30, 595 mOsm); 10500 µg/mL in series [5] (citrate phosphate buffer with sodium chloride); 11100 µg/mL in series [5] (phosphate buffer with sodium chloride). Besides, the solubility at 24 h in series [2] was 3700 to 4900 µg/mL (≈ 14.7 to 19.4 mM); in series [5], above 10000 µg/mL. In addition, the “Concentration of Orellanine” value in series [3] (NaH2PO4—Na2HPO4 pH 7.4, 50 mM, stirred 24 hours at room temperature, final pH 7.33, 150 mOsm) was determined as 4880 µg/mL. Also, the “Killing of human renal cancer cells” value in series [6] is given as “killed them with great efficiency”.
